From patent publication US7666254B1, “Borate compositions for wood preservation” (Osmose, Inc., priority 2006, dated 2010)

System: Coptotermes acinaciformis
Experiment: ensis mean mass loss test: laboratory termite bioassay of treated Pinus radiata specimens, eight weeks
Format: in vivo
Settings: 8 weeks exposure, mean of 6 replicates, SE in parentheses
Excerpt: Pinus radiata D. Don (Radiata pine) specimens (20×20×10 mm long) were cut from the sapwood of several pruned, fast-grown trees that had been harvested from the northern plantation forests of […], Australia. These samples are referred to as “ensis samples.” Trees were 20 to 24 years old. Specimens were pooled and randomly allocated into treatment groups. Prior to treatment, specimens were conditioned to 9.5% moisture content (m.c.). […] The solutions were used immediately. The following impregnation protocol was used: (the “ensis impregnation protocol”). Specimens were treated by drawing a vacuum of -95 kPa for 30 minutes, introducing the preservative solution while under vacuum, and immediately releasing the vacuum. Specimens were allowed to absorb the solution for 30 minutes atmospheric pressure. Each specimen was weighed before and immediately after treatment to determine retention. The specimens closest to the desired retentions were selected. Prior to bioassay against termites, all test specimens from each treatment were artificially weathered to H2 conditions by vacuum oven drying for three days at 40° C. and -95 kPa. After removal from the vacuum ovens, the specimens were cooled in a desiccator before being weighed to obtain initial masses. At each stage, care was taken to ensure that specimens of different treatments were kept separate. The weathering step removed from the specimens any volatiles that may be deleterious to termite health and vigor, as well as to provide artificial ageing. The test specimens were subjected to bioassay in accordance with the minimum requirements specified for H2 conditions in the Australasian Wood Preservation Committee Protocols for Assessment of Wood Preservatives (AWPC 1997), using one species of subterranean termite, Coptotermes acinaciformis. C. acinaciformis is widely distributed throughout mainland Australia and is responsible for greater economic loss that all other species of Australian termites combined (Gay and Calaby 1970). Only fresh, field collected stocks of termites were used for the bioassay. These termites were collected from the Northern Territory, transported by air to the Ensis Clayton laboratory and used promptly. Six replicate test specimens of each treatment were exposed to termites. A further three specimens were designated as vacuum oven controls. The following testing protocol was used (the “[…] loss test”). A single test specimen was centered on a 29 mm plastic disc to stop diffusion of boron out of the specimen. They were centrally placed on a moist matrix of C. acinaciformis finely ground mound material (20g, 100% m.c.) within a 250 ml glass jar (96 mm high, 62 mm diameter). Five grams of C. acinaciformis were added to each jar. A plastic lid, with a central 9 mm diameter ventilator, closed the jar (FIG. 1). The duration of the bioassay was eight weeks. The bioassay was conducted in an insectary maintained at 27° C., 70% RH. […] At the conclusion of the bioassay, test specimens were removed from the jars and cleaned. The test specimens, as well as vacuum oven controls, were then vacuum oven dried under the same conditions that were used to obtain the initial masses (i.e., 3 days at 40° C. and -95 kPa). After cooling and weighing the specimens, the final and initial masses were compared to obtain mass loss. If necessary, the mass loss of specimens exposed to termites was adjusted to accommodate any changes recorded in the vacuum oven controls.

SMILES	Mean mass loss (target retention 0.1% BAE (% m/m in OD wood))	Mean mass loss (target retention 0.2% BAE)	Mean mass loss (target retention 0.5% BAE)	Mean mass loss (target retention 2.5 g/m^3 bifenthrin)	Mean mass loss (target retention 5.0 g/m^3 bifenthrin)	Mean mass loss (target retention 7.5 g/m^3 bifenthrin)
O.O.O.O.O=BOB1OB(OB=O)OB2OB([O-])OB([O-])OB(O1)O2.[Na+].[Na+] [BAE, disodium octaborate tetrahydrate]	93.5 (3.9) %	30.9 (5.3) %	48.6 (12.7) %			
Cc1c(COC(=O)[C@@H]2[C@H](/C=C(\Cl)C(F)(F)F)C2(C)C)cccc1-c1ccccc1 (racemic) [bifenthrin]				15.6 (2.9) %	4.8 (0.5) %	4.2 (0.4) %
